Data: ChEMBL document CHEMBL5390204, “Persephacin Is a Broad-Spectrum Antifungal Aureobasidin Metabolite That Overcomes Intrinsic Resistance in Aspergillus fumigatus” (J Nat Prod, 2023)
Calls of active or inactive are those of the source. The calls are words filed in the database; no cut-off is given here.

Tests used:
Format in all cases: functional, organism-based
Conditions in all cases: time 4.0 day
Candida albicans [1] = test: Antifungal activity against Candida albicans SC5314 infected in pig cornea assessed as suppression of fungal growth at 5 % administered post fungal infection measured after 4 days by microscopic analysis
Candida albicans [2] = test: Antifungal activity against fluconazole-resistant Candida albicans SC5314 infected in pig cornea assessed as suppression of fungal growth at 5 % administered post fungal infection measured after 4 days by microscopic analysis
Aspergillus fumigatus [3] = test: Antifungal activity against Aspergillus fumigatus NRRL5109 infected in pig cornea assessed as suppression of fungal growth at 5 % administered post fungal infection measured after 4 days by microscopic analysis
Candida albicans [4] = test: Antifungal activity against fluconazole-resistant Candida albicans SC5314 infected in pig cornea assessed as suppression of fungal growth at 2 % administered post fungal infection measured after 4 days by microscopic analysis
Aspergillus fumigatus [5] = test: Antifungal activity against Aspergillus fumigatus NRRL5109 infected in pig cornea assessed as suppression of fungal growth at 2 % administered post fungal infection measured after 4 days by microscopic analysis

SMILES | Activity (Candida albicans [1]) | Activity (Candida albicans [2]) | Activity (Aspergillus fumigatus [3]) | Activity (Candida albicans [4]) | Activity (Aspergillus fumigatus [5])
C[C@@H]1C/C=C/C=C/C=C/C=C/[C@H](O[C@@H]2O[C@H](C)[C@@H](O)[C@H](N)[C@@H]2O)C[C@@H]2O[C@](O)(C[C@@H](O)C[C@H]3O[C@@H]3/C=C/C(=O)O1)C[C@H](O)[C@H]2C(=O)O | Active | Active | Active | – | –
OC(Cn1cncn1)(Cn1cncn1)c1ccc(F)cc1F | – | – | – | inactive | inactive
